Earlier results in US20050158402A1, “Preparation of Chinese herbal composite recipe used in environmental sanitation” (priority 2004, published 2005).
“Also recorded” adds a separate entry of the source.

What was measured:
[1] = test system: Shigella; conditions: 1% matrine, in vitro
[2] = test system: E. Coli; conditions: 1% matrine, in vitro
[3] = test system: Proteus; conditions: 1% matrine, in vitro
[4] = test system: B-streptococcus; conditions: 1% matrine, in vitro
[5] = test system: Staphylococcus aureaus; conditions: 1% matrine, in vitro
[6] = test system: C. albicans
[7] = test system: Cryptococcus neoformans
[8] = test system: Rhizopus stolonifer
[9] = test system: type A hemolytic Streptococcus
[10] = test system: Penicillum
[11] = test system: Ascarid
[12] = test system: bacteria
[13] = test system: Columbia SK viruses
[14] = test system: Shigella species; conditions: in vitro

O=C1CCC[C@@H]2[C@H]3CCCN4CCC[C@@H](CN12)[C@@H]34 [matrine]
bacteria inhibitive effects on Shigella [1]: bacteria inhibitive effects on Shigella, E. Coli, Proteus,
bacteria inhibitive effects on E. Coli [2]: bacteria inhibitive effects on Shigella, E. Coli, Proteus,
bacteria inhibitive effects on Proteus [3]: bacteria inhibitive effects on Shigella, E. Coli, Proteus,
bacteria inhibitive effects on B-streptococcus [4]: bacteria inhibitive effects on Shigella, E. Coli, Proteus,
bacteria inhibitive effects on Staphylococcus aureaus [5]: bacteria inhibitive effects on Shigella, E. Coli, Proteus,

Cc1cc(O)c(C(=O)CCC(C)C)c(=O)o1 [pogostone]
inhibitive effects on C. albicans [6]: The pogostone show apparently inhibitive effects on fungi
inhibitive effects on Cryptococcus neoformans [7]: The pogostone show apparently inhibitive effects on fungi
inhibitive effects on Rhizopus stolonifer [8]: The pogostone show apparently inhibitive effects on fungi
inhibitive effect on type A hemolytic Streptococcus [9]: stolonifer. It shows certain degree of inhibitive effect on type
inhibit the growth of fungi such as Penicillum [10]: 22(7): 318) The pogostone can inhibit the growth of fungi

CC[C@@H]1[C@H]2CCCCN3[C@H]2[C@H](C[C@H]3[C@@H]2C[C@H](C)C(=O)O2)[C@@H]2[C@H]1OC(=O)[C@H]2C [tuberostemonine]
paralyze Ascarid [11]: can paralyze

C/C(=C/CC[C@]1(C)C2C[C@@H]3[C@H](C2)C31C)CO [α - santol]
anti-bacteria effects [12]: The α - santol and β -santol show stronger anti-bacteria

C=C1[C@@H]2CC[C@@H](C2)[C@@]1(C)CC/C=C(/C)CO [β -santol]
anti-bacteria effects [12]: The α - santol and β -santol show stronger anti-bacteria

evodiamine
anti-viruses effect on rats infected by Columbia SK viruses [13]: anti-viruses effect; also recorded: anti-virus effect

santol
effective to Shigella species [14]: effective
